According to patent publication US10821115B2, “Compounds that inhibit Mcl-1 protein” (priority 2017, dated 2020):
Read-outs that look alike come from different tables or passages of the source.

Key:
[1] = target: recombinant human Mcl-1 (residues 171-327) / Bim interaction (Homo sapiens (Human), UniProt Q07820); assay: biochemical; type: binding; details: read-out: Mcl-1 HTRF IC50
[2] = tested on: human multiple myeloma cell line, OPM-2; assay: Cell viability assay (OPM-2 10 FBS), CellTiter-Glo; type: cell-based
In short: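 OPM-2 cells at 3000 cells/well in RPMI 1640 with 10% FBS were exposed to serially diluted compounds for 16 h at 37 °C, 5% CO2.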

[3] = TR-FRET, Mcl-1(171-327) / biotin-Bim (51-76)
[4] = Homo sapiens, OPM-2, 16 h, read-out: OPM-2 10% FBS IC50 IP, OPM-2 cells, 10% FBS, 16 h, CellTiter-Glo
[5] = read-out: OPM-2 10% FBS IC50 IP, OPM-2 cells, 10% FBS, 16 h, CellTiter-Glo
[6] = 0.1 nM Mcl-1(171-327), 0.05 nM biotin-Bim (51-76)
[7] = Homo sapiens, OPM-2, 16 h, read-out: OPM-2 10% FBS IC50 IP, OPM-2 cells, 10% FBS, 16 h incubation

Chain of recombinant human Mcl-1 (residues 171-327) / Bim interaction (Q07820 171-327): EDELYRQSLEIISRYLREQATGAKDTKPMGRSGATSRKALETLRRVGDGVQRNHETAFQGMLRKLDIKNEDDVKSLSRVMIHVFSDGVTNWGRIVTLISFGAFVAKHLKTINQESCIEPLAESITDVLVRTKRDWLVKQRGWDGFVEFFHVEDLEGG

SMILES	IC50 [1, 3]	IC50 [2, 4]	further results
C[C@@H]1[C@@H](C)C/C=C/[C@@](O)([C@@H](O)C(=O)N(C)C)[C@@H]2CC[C@H]2CN2C[C@@]3(CCCc4cc(Cl)ccc43)COc3ccc(cc32)C(=O)NS1(=O)=O [Example 100289, (2R)-2-((1S,3′R,6′R,7′S,8′E,11′S,12′R)-6-chloro-7′-hydroxy-11′,12′-dimethyl-13′,13′-dioxido-15′-oxo-3,4-dihydro-2H-spiro[naphthalene-1,22′-[20]oxa[13]thia[1,14]diazatetracyclo [14.7.2.0~3,6~.0~19,24~]pentacosa[8,16,18,24]tetraen]-7′-yl)-2-hydroxy-N,N-dimethylethanamide]	0.878 nM	3960 nM	
CO[C@@]1(CC(C)=O)/C=C/C[C@H](C)[C@@H](C)S(=O)(=O)NC(=O)c2ccc3c(c2)N(C[C@@H]2CC[C@H]21)C[C@@]1(CCCc2cc(Cl)ccc21)CO3 [Example 100446, (1S,3′R,6′R,7′S,8′E,11′S,12′R)-6-chloro-7′-methoxy-11′,12′-dimethyl-7′-(2-oxopropyl)-3,4-dihydro-2H,15′H-spiro[naphthalene-1,22′-[20]oxa[13]thia[1,14]diazatetracyclo [14.7.2.0~3,6~.0~19,24~]pentacosa[8,16,18,24]tetraen]-15′-one 13′,13′-dioxide]	0.126 nM	345 nM	
C[C@@H]1[C@@H](C)C/C=C/[C@@](O)(C#CCCN2CCOCC2)[C@@H]2CC[C@H]2CN2C[C@@]3(CCCc4cc(Cl)ccc43)COc3ccc(cc32)C(=O)NS1(=O)=O [Example 100327, (1S,3′R,6′R,7′S,8′E,11′S,12′R)-6-chloro-7′-hydroxy-11′,12′-dimethyl-7′-(4-(4-morpholinyl)-1-butyn-1-yl)-3,4-dihydro-2H,15′H-spiro[naphthalene-1,22′-[20]oxa[13]thia[1,14]diazatetracyclo [14.7.2.0~3,6~.0~19,24~]pentacosa[8,16,18,24]tetraen]-15′-one 13′,13′-dioxide]	0.295 nM		IC50 [2, 5]: 550 nM
C[C@@H]1[C@@H](C)CCC[C@@]2(OCCS2)[C@@H]2CC[C@H]2CN2C[C@@]3(CCCc4cc(Cl)ccc43)COc3ccc(cc32)C(=O)NS1(=O)=O [Example 100115, (1S,3′R,6′R,7′S,11′S,12′R)-6-chloro-11′,12′-dimethyl-3,4-dihydro-2H,15′H-dispiro[naphthalene-1,22′-[20]oxa[13]thia[1,14]diazatetracyclo [14.7.2.0~3,6~.0~19,24~]pentacosa[16,18,24]triene-7′,2″-[1,3]oxathiolan]-15′-one 13′,13′-dioxide]	4.49 nM	2840 nM	
C[C@@H]1[C@@H](C)C/C=C/[C@@](O)(CC#N)[C@@H]2CC[C@H]2CN2C[C@@]3(CCCc4cc(Cl)ccc43)COc3ccc(cc32)C(=O)NS1(=O)=O [Example 100050, ((1S,3′R,6′R,7′S,8′E,11′S,12′R)-6-chloro-7′-hydroxy-11′,12′-dimethyl-13′,13′-dioxido-15′-oxo-3,4-dihydro-2H-spiro[naphthalene-1,22′-[20]oxa[13]thia[1,14]diazatetracyclo [14.7.2.0~3,6~.0~19,24~]pentacosa[8,16,18,24]tetraen]-7′-yl)acetonitrile]			IC50 [1]: 1.28 nM; IC50 [2, 5]: 3820 nM
CO[C@@]1(CN2CCN(Cc3nc(C)no3)CC2)/C=C/C[C@H](C)[C@@H](C)S(=O)(=O)NC(=O)c2ccc3c(c2)N(C[C@@H]2CC[C@H]21)C[C@@]1(CCCc2cc(Cl)ccc21)CO3 [Example 317, (1S,3′R,6′R,7′S,8′E,11′S,12′R)-6-chloro-7′-methoxy-11′,12′-dimethyl-7′-((4-((3-methyl-1,2,4-oxadiazol-5-yl)methyl)-1-piperazinyl)methyl)-3,4-dihydro-2H,15′H-spiro[naphthalene-1,22′-[20]oxa[13]thia[1,14]diazatetracyclo [14.7.2.0~3,6~.0~19,24~]pentacosa[8,16,18,24]tetraen]-15′-one 13′,13′-dioxide]			IC50 [1, 6]: 0.186 nM; IC50 [2, 7]: 88 nM
C[C@@H]1[C@@H](C)C/C=C/[C@](O)(c2cccnc2)[C@@H]2CC[C@H]2CN2C[C@@]3(CCCc4cc(Cl)ccc43)COc3ccc(cc32)C(=O)NS1(=O)=O (single isomer, unassigned) [Example 100183]	1.34 nM	2240 nM	
CO[C@@]1(C#CCO)/C=C/C[C@H](C)[C@@H](C)S(=O)(=O)NC(=O)c2ccc3c(c2)N(C[C@@H]2CC[C@H]21)C[C@@]1(CCCc2cc(Cl)ccc21)CO3 [Example 100344, (1S,3′R,6′R,7′S,8′E,11′S,12′R)-6-chloro-7′-(3-hydroxy-1-propyn-1-yl)-7′-methoxy-11′,12′-dimethyl-3,4-dihydro-2H,15′H-spiro[naphthalene-1,22′-[20]oxa[13]thia[1,14]diazatetracyclo [14.7.2.0~3,6~.0~19,24~]pentacosa[8,16,18,24]tetraen]-15′-one 13′,13′-dioxide]	0.309 nM	290 nM	
C=CCC[C@@]1(O)/C=C/C[C@H](C)[C@@H](C)S(=O)(=O)NC(=O)c2ccc3c(c2)N(C[C@@H]2CC[C@H]21)C[C@@]1(CCCc2cc(Cl)ccc21)CO3 [Example 100157, (1S,3′R,6′R,7′R,8′E,11′S,12′R)-7′-(3-buten-1-yl)-6-chloro-7′-hydroxy-11′,12′-dimethyl-3,4-dihydro-2H,15′H-spiro[naphthalene-1,22′-[20]oxa[13]thia[1,14]diazatetracyclo [14.7.2.0~3,6~.0~19,24~]pentacosa[8,16,18,24]tetraen]-15′-one 13′,13′-dioxide]	4.81 nM		IC50 [2, 5]: 3210 nM
CO[C@@]1(CN2CCN(C3CS(=O)(=O)C3)CC2)/C=C/C[C@H](C)[C@@H](C)S(=O)(=O)NC(=O)c2ccc3c(c2)N(C[C@@H]2CC[C@H]21)C[C@@]1(CCCc2cc(Cl)ccc21)CO3 [Example 339, (1S,3′R,6′R,7′S,8′E,11′S,12′R)-6-chloro-7′-((4-(1,1-dioxido-3-thietanyl)-1-piperazinyl)methyl)-7′-methoxy-11′,12′-dimethyl-3,4-dihydro-2H,15′H-spiro[naphthalene-1,22′-[20]oxa[13]thia[1,14]diazatetracyclo [14.7.2.0~3,6~.0~19,24~]pentacosa[8,16,18,24]tetraen]-15′-one 13′,13′-dioxide]			IC50 [1, 6]: 0.117 nM; IC50 [2, 7]: 153 nM
C[C@@H]1[C@@H](C)C/C=C/[C@](O)([C@@H](C)C(=O)OC(C)(C)C)[C@@H]2CC[C@H]2CN2C[C@@]3(CCCc4cc(Cl)ccc43)COc3ccc(cc32)C(=O)NS1(=O)=O (single isomer, unassigned) [Example 100110]	1.48 nM	686 nM	
COCC[C@@H]1[C@@H](C)C/C=C/[C@@](CN2CCN3CCCC[C@@H]3C2)(OC)[C@@H]2CC[C@H]2CN2C[C@@]3(CCCc4cc(Cl)ccc43)COc3ccc(cc32)C(=O)NS1(=O)=O [Example 181, (1S,3′R,6′R,7′R,8′E,11′S,12′R)-6-chloro-7′-methoxy-12′-(2-methoxyethyl)-11′-methyl-7′-((9aR)-octahydro-2H-pyrido[1,2-a]pyrazin-2-ylmethyl)-3,4-dihydro-2H,15′H-spiro[naphthalene-1,22′-[20]oxa[13]thia[1,14]diazatetracyclo [14.7.2.0~3,6~.0~19,24~]pentacosa[8,16,18,24]tetraen]-15′-one 13′,13′-dioxide]			IC50 [1, 6]: 0.324 nM; IC50 [2, 7]: 74 nM
